Assay results as given in BigSolDB 2.1.

Oc1c(Cl)cc(Cl)c2cccnc12
solubility (mole fraction) (in 1,4-dioxane, 293.15 K): 0.00523 | solubility (mole fraction) (in 1,4-dioxane, 298.15 K): 0.0062 | solubility (mole fraction) (in 1,4-dioxane, 303.15 K): 0.00736 | solubility (mole fraction) (in 1,4-dioxane, 308.15 K): 0.0089 | solubility (mole fraction) (in 1,4-dioxane, 313.15 K): 0.0106 | solubility (mole fraction) (in 1,4-dioxane, 318.15 K): 0.0123 | solubility (mole fraction) (in 1,4-dioxane, 323.15 K): 0.0146 | solubility (mole fraction) (in 1,4-dioxane, 328.15 K): 0.017 | solubility (mole fraction) (in 1,4-dioxane, 333.15 K): 0.0193 | solubility (mole fraction) (in DMF, 293.15 K): 0.0132 | solubility (mole fraction) (in DMF, 298.15 K): 0.016 | solubility (mole fraction) (in DMF, 303.15 K): 0.0194 | solubility (mole fraction) (in DMF, 308.15 K): 0.024 | solubility (mole fraction) (in DMF, 313.15 K): 0.0294 | solubility (mole fraction) (in DMF, 318.15 K): 0.0347 | solubility (mole fraction) (in DMF, 323.15 K): 0.0408 | solubility (mole fraction) (in DMF, 328.15 K): 0.0478 | solubility (mole fraction) (in DMF, 333.15 K): 0.0555 | solubility (mole fraction) (in DMSO, 293.15 K): 0.00296 | solubility (mole fraction) (in DMSO, 298.15 K): 0.00378 | solubility (mole fraction) (in DMSO, 303.15 K): 0.0048 | solubility (mole fraction) (in DMSO, 308.15 K): 0.00633 | solubility (mole fraction) (in DMSO, 313.15 K): 0.00793 | solubility (mole fraction) (in DMSO, 318.15 K): 0.00997 | solubility (mole fraction) (in DMSO, 323.15 K): 0.0123 | solubility (mole fraction) (in DMSO, 328.15 K): 0.0154 | solubility (mole fraction) (in DMSO, 333.15 K): 0.0188 | solubility (mole fraction) (in NMP, 293.15 K): 0.00576 | solubility (mole fraction) (in NMP, 298.15 K): 0.00683 | solubility (mole fraction) (in NMP, 303.15 K): 0.00823 | solubility (mole fraction) (in NMP, 308.15 K): 0.00963 | solubility (mole fraction) (in NMP, 313.15 K): 0.0113 | solubility (mole fraction) (in NMP, 318.15 K): 0.0137 | solubility (mole fraction) (in NMP, 323.15 K): 0.0162 | solubility (mole fraction) (in NMP, 328.15 K): 0.0188 | solubility (mole fraction) (in NMP, 333.15 K): 0.022 | solubility (mole fraction) (in water, 293.15 K): 1.02e-06 | solubility (mole fraction) (in water, 298.15 K): 1.48e-06 | solubility (mole fraction) (in water, 303.15 K): 2.03e-06 | solubility (mole fraction) (in water, 308.15 K): 2.82e-06 | solubility (mole fraction) (in water, 313.15 K): 3.82e-06 | solubility (mole fraction) (in water, 318.15 K): 5e-06 | solubility (mole fraction) (in water, 323.15 K): 6.86e-06 | solubility (mole fraction) (in water, 328.15 K): 8.91e-06 | solubility (mole fraction) (in water, 333.15 K): 1.15e-05
